One data set has as its target T1, human EP4 (Homo sapiens, UniProt P35408).
T1 construct: expressed in transfected cells; host or cells: HEK293 cells transduced with EP4 BacMam baculovirus
Briefly: cAMP Gs functional assay (HTRF cAMP dynamic-2) in EP4-transfected HEK293 cells. The data set is classed as cell-based. As to conditions: HEK293 cells transfected with EP4 BacMam virus; for EC50: 30 min at 37° C., HTRF cAMP, read-out: cAMP human EP4 pEC50 (converted); for cAMP human EP4 Emax: positive control PGE2. Here is the method:
Cloning, Baculovirus generation, large scale infection of HEK293 cells and membrane preparation: Human prostaglandin E2 receptor 4 (EP4) was cloned into pBacMam expression vector (GeneScript, UK). Transposition of EP4 DNA was performed using Invitrogen's Bac-to-Bac Baculovirus Expression Systems. P0 baculovirus was generated by transfecting SF9 Cells with bacmid DNA using Cellfectin II transfection reagent (ThermoFisher Scientific, UK). Following P0 generation P1 virus was then generated ready for large scale infection and membrane preparation. HEK293 cells were grown in DMEM (ThermoFisher Scientific, UK), supplemented with 10% heat inactivated fetal bovine serum (FBS). Cells were infected at a seeding density of 3.5 million cells/mL in 500 cm^3 flasks at 5% v/v EP4 Bacman. Expression was carried out over a 36 hour period at 37° C. with 5% CO2. The cells were removed using PBS and a cell scrapper. The cell culture was centrifuged at 2500 RPM for 10 mins at 4° C. The supernatant was then poured off and the pellet stored at −80° C. The pellet was defrosted and re-suspended in 15 mL of homogenising buffer (20 mM HEPES, 10 mM EDTA, pH 7.4). Then homogenised in mechanical homogeniser (VMR) for 10 seconds. The membrane was centrifuged in centrifuge tubes at 40,000 g for 15 mins at 4° C. The supernatant was poured away and re-suspended in 15 mL of homogenising buffer and homogenised for 20 seconds. The membrane was then centrifuged at 40,000 g for 45 mins at 4° C. The membrane was then re-suspended in 3 mL of storage buffer (20 mM HEPES, 0.1 mM EDTA, pH 7.4) mixing well. The resulting membranes were then stored at −80° C.
cAMP Gs Functional Assay: cAMP production following EP4 receptor activation was determined using the Homogeneous Time-Resolved Fluorescence (HTRF) cAMP dynamic-2 assay (Cisbio, France). HEK293 cells were transfected using a 0.5% EP4 Bacman virus for 36 hours, before dissociating the cells, and freezing at −150° C.
On the day of testing, increasing concentration of test compounds, alongside positive controls ([…] PGE2 (Tocris, Abingdon, UK)) and negative control (DMSO (Sigma-Aldrich, UK) were added to a ProxiPlate-384 Plus, White 384-shallow well Mircoplate, (PerkinElmer, USA) using the ECHO dispense.
Cells were defrosted in a water bath and resuspended in DMEM supplemented with 10% FBS before centrifuging at 1200 RPM for 5 mins to form a pellet. The pellet was resuspended in assay buffer (DMEM+0.5 mM IBMX (Tocris, Abingdon, UK)) to 0.5×10^6 cells/mL. Cell suspension, for a final assay concentration of 5000 cell/well was added using the multidrop to the pre-dispensed assay plate. The plate was then incubated at 37° C. for 30 mins, with 5% CO2. The cAMP production was determined as manufacturer's instructions, before plates were read on a PheraStar fluorescence plate reader (BMG LabTech, Germany).
For orientation: In TR-FRET formats the signal depends on donor and acceptor labels being close together.

A short description of data set [1]: Unidirectional Caco-2 cell permeability assay. The format is in vitro ADME. As to conditions: human, apical pH 6.5, basolateral pH 7.4, 1 hour, 37° C., n=2. How it is done: Caco-2 cells (ECACC) were seeded onto 24-well Transwell plates at 2×10^5 cells per well and used in confluent monolayers after a 21 day culture at 37° C. under 500 CO2. Test compounds were incubated at 10 μM, 0.2% DMSO final, n=2 in assay buffer (Hanks balanced salt solution supplemented with 25 mM HEPES, adjusted to pH 6.5). Hanks balanced salt solution supplemented with 25 mM HEPES, adjusted to pH 7.4 (0.2% DMSO final) was used for the basolateral chamber (as receiver).
Incubations were performed at 37° C., with samples removed from both donor and acceptor chambers at T=0 and 1 hour and compound analysed by mass spectrometry (LC-MS/MS) including an analytical internal standard ([…] carbamazepine).
Apparent permeability (Papp) values are shown in Table 3 and were determined from the relationship:
Where V is the volume of each Transwell compartment (apical 125 μL, basolateral 600 μL), and concentrations are the relative MS responses for compound (normalized to internal standard) in the donor chamber before incubation and acceptor chamber at the end of the incubation Area=area of cells exposed for drug transfer (0.33 cm^2).
Lucifer Yellow (LY) was added to the apical buffer in all wells to assess viability of the cell layer. As LY cannot freely permeate lipophilic barriers, a high degree of LY transport indicates poor integrity of the cell layer and wells with a LY Papp>10×10^−6 cm/s were rejected.
Compound recovery from the wells was determined from MS responses (normalized to internal standard) in donor and acceptor chambers at the end of incubation compared to response in the donor chamber pre-incubation.
For orientation: Passage across Caco-2 layers is used to estimate intestinal permeability.

Each structure is given as a SMILES string.

T1 sequence (P35408 whole entry): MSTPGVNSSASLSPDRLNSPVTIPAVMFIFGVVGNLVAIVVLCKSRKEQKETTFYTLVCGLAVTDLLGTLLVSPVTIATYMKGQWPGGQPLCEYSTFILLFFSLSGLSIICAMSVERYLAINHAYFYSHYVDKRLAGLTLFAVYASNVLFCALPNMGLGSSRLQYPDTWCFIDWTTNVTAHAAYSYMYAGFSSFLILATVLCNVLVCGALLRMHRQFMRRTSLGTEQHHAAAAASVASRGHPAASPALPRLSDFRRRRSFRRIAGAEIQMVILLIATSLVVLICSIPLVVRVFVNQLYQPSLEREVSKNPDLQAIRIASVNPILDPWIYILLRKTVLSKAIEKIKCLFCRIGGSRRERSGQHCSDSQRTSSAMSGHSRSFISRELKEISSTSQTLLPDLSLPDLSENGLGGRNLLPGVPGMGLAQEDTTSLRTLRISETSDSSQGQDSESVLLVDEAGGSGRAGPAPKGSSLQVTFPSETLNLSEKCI

By Papp A→B is commonly meant the apparent permeability from the apical to the basolateral side of a cell layer. Lower therefore signals poor permeation. Turning to `Cc1cc(O)ccc1-c1cccc(CN2CCC[C@@H]2C(=O)N[C@@H](C)c2ccc(C(=O)O)cc2)c1` [Example 1], on human EP4, the EC50 is 2 nM and the cAMP human EP4 Emax is 81%. In addition, in data set [1], the Papp A→B at 1 h, 10 μM was determined as 14.5 ×10⁻⁶ cm/s.
On the same counts, the results for `Cc1cc(S(N)(=O)=O)ccc1-c1cccc(CN2CCC[C@@H]2C(=O)N[C@@H](C)c2ccc(C(=O)O)cc2)c1` [Example 2, 4-((S)-1-((R)-1-((2′-methyl-4′-sulfamoyl-[1,1′-biphenyl]-3-yl)methyl)pyrrolidine-2-carboxamido)ethyl)benzoic acid] are 1.58 nM, 99% and 1.14 ×10⁻⁶ cm/s.
Take `Cc1cc(C(N)=O)ccc1-c1cccc(CN2CCC[C@@H]2C(=O)N[C@@H](C)c2ccc(C(=O)O)cc2)c1` [Example 3, 4-((S)-1-((R)-1-((4′-carbamoyl-2′-methyl-[1,1′-biphenyl]-3-yl)methyl)pyrrolidine-2-carboxamido)ethyl)benzoic acid]: on human EP4, the EC50 is 12.6 nM and the cAMP human EP4 Emax stood at 100%. The compound further yielded a Papp A→B at 1 h, 10 μM in data set [1] of 1.18 ×10⁻⁶ cm/s.
`Cc1cc(S(N)(=O)=O)ccc1-c1cccc(CN2C[C@H](O)C[C@@H]2C(=O)N[C@@H](C)c2ccc(C(=O)O)cc2)c1` [Example 4, 4-((S)-1-((2R,4R)-4-hydroxy-1-((2′-methyl-4′-sulfamoyl-[1,1′-biphenyl]-3-yl)methyl)pyrrolidine-2-carboxamido)ethyl)benzoic acid]: at human EP4, the EC50 is 158 nM and the cAMP human EP4 Emax worked out at 98%. In addition, the Papp A→B at 1 h, 10 μM in data set [1] was 0.26 ×10⁻⁶ cm/s.
On the same counts, the results for `Cc1cc(O)ccc1-c1cccc(CN2C[C@H](O)C[C@@H]2C(=O)N[C@@H](C)c2ccc(C(=O)O)cc2)c1` [Example 5, 4-((S)-1-((2R,4R)-4-hydroxy-1-((4′-hydroxy-2′-methyl-[1,1′-biphenyl]-3-yl)methyl)pyrrolidine-2-carboxamido)ethyl)benzoic acid] are 63.1 nM, 80% and 0.36 ×10⁻⁶ cm/s.
For the compound `Cc1cc(C(N)=O)ccc1-c1cccc(CN2C[C@H](O)C[C@@H]2C(=O)N[C@@H](C)c2ccc(C(=O)O)cc2)c1` [Example 6, 4-((S)-1-((2R,4R)-1-((4′-carbamoyl-2′-methyl-[1,1′-biphenyl]-3-yl)methyl)-4-hydroxypyrrolidine-2-carboxamido)ethyl)benzoic acid], at human EP4, the EC50 is 501 nM and the cAMP human EP4 Emax is 91%. Also, the Papp A→B at 1 h, 10 μM in data set [1] stood at 0.85 ×10⁻⁶ cm/s.
`C[C@H](NC(=O)[C@H]1CCCN1Cc1cccc(-c2ccc(O)cc2)c1)c1ccc(C(=O)O)cc1` [Example 7, 4-((S)-1-((R)-1-((4′-hydroxy-[1,1′-biphenyl]-3-yl)methyl)pyrrolidine-2-carboxamido)ethyl)benzoic acid]: the EC50 at human EP4 was over 10000 nM. The Papp A→B at 1 h, 10 μM in data set [1] worked out at 7.71 ×10⁻⁶ cm/s.
`C[C@H](NC(=O)[C@H]1CCCN1Cc1cccc(-c2ccc(O)cc2C#N)c1)c1ccc(C(=O)O)cc1` [Example 8, 4-((S)-1-((R)-1-((2′-cyano-4′-hydroxy-[1,1′-biphenyl]-3-yl)methyl)pyrrolidine-2-carboxamido)ethyl)benzoic acid]: at human EP4, the EC50 is 31.6 nM and the cAMP human EP4 Emax stood at 74%. The compound further came in with an apical-to-basolateral permeability (Papp A→B) at 1 h, 10 μM in data set [1] of 2.1 ×10⁻⁶ cm/s.
Regarding `Cc1cc(C(=O)O)ccc1-c1cccc(CN2CCC[C@@H]2C(=O)N[C@@H](C)c2ccc(C(=O)O)cc2)c1` [Example 9, 3′-(((R)-2-(((S)-1-(4-carboxyphenyl)ethyl)carbamoyl)pyrrolidin-1-yl)methyl)-2-methyl-[1,1′-biphenyl]-4-carboxylic acid], on human EP4, the EC50 is 200 nM and the cAMP human EP4 Emax came to 96%. In addition, in data set [1], the Papp A→B at 1 h, 10 μM is 0.33 ×10⁻⁶ cm/s.
For `Cc1cc(OS(N)(=O)=O)ccc1-c1cccc(CN2CCC[C@@H]2C(=O)N[C@@H](C)c2ccc(C(=O)O)cc2)c1` [Example 10], in that order: 2 nM, 96% and 1.84 ×10⁻⁶ cm/s.
For `C[C@H](NC(=O)[C@H]1CCCN1Cc1cccc(-c2ccc(C(N)=O)cc2O)c1)c1ccc(C(=O)O)cc1` [Example 11, 4-((S)-1-((R)-1-((4′-carbamoyl-2′-hydroxy-[1,1′-biphenyl]-3-yl)methyl)pyrrolidine-2-carboxamido)ethyl)benzoic acid], on human EP4, the EC50 is 20 nM and the cAMP human EP4 Emax came to 92%. Besides, the Papp A→B at 1 h, 10 μM in data set [1] came to 0.18 ×10⁻⁶ cm/s.
Take `C[C@H](NC(=O)[C@H]1CCCN1Cc1ccc(O)c(-c2ccc(C(N)=O)cc2)c1)c1ccc(C(=O)O)cc1` [Example 12, 4-((S)-1-((R)-1-((4′-carbamoyl-6-hydroxy-[1,1′-biphenyl]-3-yl)methyl)pyrrolidine-2-carboxamido)ethyl)benzoic acid]: at human EP4, the EC50 was 7.94 nM and the cAMP human EP4 Emax turned out to be 89%. The compound also had an apparent permeability from apical to basolateral (Papp A→B) at 1 h, 10 μM in data set [1] of 0.26 ×10⁻⁶ cm/s.
As for `Cc1cc(C(N)=O)ccc1-c1cc(O)cc(CN2CCC[C@@H]2C(=O)N[C@@H](C)c2ccc(C(=O)O)cc2)c1` [Example 13], on human EP4, the EC50 was 0.251 nM and the cAMP human EP4 Emax turned out to be 99%. In data set [1], this compound came in with an apical-to-basolateral permeability (Papp A→B) at 1 h, 10 μM of 0.34 ×10⁻⁶ cm/s.
`Cc1cc(C(N)=O)ccc1-c1cc(CN2CCC[C@@H]2C(=O)N[C@@H](C)c2ccc(C(=O)O)cc2)ccc1O` [Example 14]: at human EP4, the EC50 was 158 nM and the cAMP human EP4 Emax was 100%. In data set [1], the Papp A→B at 1 h, 10 μM came to 0.19 ×10⁻⁶ cm/s.
As for `Cc1cc(C(N)=O)ccc1-c1cccc(CN2CCC[C@@H]2C(=O)N[C@@H](C)c2ccc(C(=O)O)c(O)c2)c1` [Example 17, 4-((S)-1-((R)-1-((4′-carbamoyl-2′-methyl-[1,1′-biphenyl]-3-yl)methyl)pyrrolidine-2-carboxamido)ethyl)-2-hydroxybenzoic acid], on human EP4, the EC50 was 63.1 nM and the cAMP human EP4 Emax was found to be 97%.
Turning to `Cc1cc(C(N)=O)ccc1-c1cncc(CN2C[C@H](O)C[C@@H]2C(=O)N[C@@H](C)c2ccc(C(=O)O)cc2)c1` [Example 25, 4-((S)-1-((2R,4R)-1-((5-(4-carbamoyl-2-methylphenyl)pyridin-3-yl)methyl)-4-hydroxypyrrolidine-2-carboxamido)ethyl)benzoic acid], at human EP4, the EC50 is 1260 nM and the cAMP human EP4 Emax was 91%.
Consider `Cc1cc(C(N)=O)ccc1-c1cc(CN2CCC[C@@H]2C(=O)N[C@@H](C)c2ccc(C(=O)O)cc2)c[n+]([O-])c1` [Example 26, 3-(4-carbamoyl-2-methylphenyl)-5-(((R)-2-(((S)-1-(4-carboxyphenyl)ethyl)carbamoyl)pyrrolidin-1-yl)methyl)pyridine 1-oxide], for which the EC50 at human EP4 was over 1000 nM.
Regarding `Cc1cc(S(N)(=O)=O)ccc1-c1cccc(CN2CC3CC2(C(=O)N[C@@H](C)c2ccc(C(=O)O)cc2)C3)c1` [Example 32, (S)-4-(1-(2-((2′-methyl-4′-sulfamoyl-[1,1′-biphenyl]-3-yl)methyl)-2-azabicyclo[2.1.1]hexane-1-carboxamido)ethyl)benzoic acid], at human EP4, the EC50 is 0.398 nM and the cAMP human EP4 Emax turned out to be 90%.

(Values after US20260042745A1, “PYRROLIDINE-2-CARBOXAMIDE DERIVATIVES AS PROSTAGLANDIN E2 RECEPTOR 4 (EP4) AGONISTS FOR THE TREATMENT OF GASTROINTESTINAL AND PULMONARY DISEASES” (NXERA PHARMA UK LIMITED, priority 2022, published 2026).)
